Measured values published in article PMC9200763 (Scientific Reports, 2022).
Values after ≈ are worked out from the molar mass of the structure shown. Like-named read-outs stand apart in the source and are kept apart here.

Key:
[1] = tested on: A. niger ATCC-16885; assay: Disc diffusion, zone of inhibition
[2] = tested on: Aspergillus fumigatus ATCC-204305; assay: Disc diffusion, zone of inhibition
[3] = tested on: Saccharomyces cerevisiae ATCC-9763; assay: Disc diffusion, zone of inhibition
[4] = tested on: Candida albicans ATCC-66027; assay: Disc diffusion, zone of inhibition
[5] = tested on: Staphylococcus aureus ATCC-11632; assay: Disc diffusion, zone of inhibition
[6] = tested on: Streptococcus mutans ATCC-25175; assay: Disc diffusion, zone of inhibition
[7] = tested on: Salmonella typhimurium ATCC-13311; assay: Disc diffusion, zone of inhibition; format: cell-based; settings: Salmonella enterica, S. typhimurium, read-out: Zone of inhibition, standard drug
Procedure: Ciprofloxacin and fluconazole were used as standard antimicrobial drugs at a concentration (10 μg/disc) for bacterial and fungal strains, respectively.
MHA was used for culturing the bacteria from bacterial broth and kept at 37 °C for 24 h. The fungal broth was used to prepare fungal culture in PDB and it was kept at 28 °C for 48 h.

[8] = tested on: B. cereus ATCC-10876; assay: Disc diffusion, zone of inhibition; settings: Bacillus cereus
[9] = tested on: Bacillus subtilis ATCC-11774; assay: Disc diffusion, zone of inhibition
[10] = Metal chelating activity assay; format: biochemical; settings: for Metal chelating EC50: analyzed using XLSTAT software
[11] = tested on: Allium cepa root; assay: Allium cepa assay, root growth; settings: 1 μL/mL
[12] = tested on: Allium cepa root tips; assay: Allium cepa assay, chromosomal aberration test; settings: 01.00 µL/mL; 72 h
Source text: (§1) The frequency of chromosomal aberration was checked following protocol of Babatunde and Bakare[31].

[13] = tested on: Allium cepa root tips; assay: Allium cepa assay, mitotic index and stages of dividing cells
Source text: as §1

[14] = tested on: AChE; parameters: method as in PMID 19351555; settings: cited from earlier work
[15] = tested on: Allium cepa root; settings: 1 μL/mL
[16] = tested on: Staphylococcus aureus ATCC-11632; assay: Broth micro dilution MIC; format: cell-based; settings: ATCC11632, S. aureus
[17] = target: α-Amylase; assay: Antidiabetic activity assay (α-amylase inhibitory); format: biochemical
[18] = DPPH free radical scavenging activity; format: biochemical; settings: for DPPH scavenging EC50: analyzed using XLSTAT software
[19] = tested on: Aspergillus fumigatus ATCC-204305; assay: Broth micro dilution MIC; format: cell-based; settings: ATCC204305, A. fumigatus
[20] = ABTS assay; format: biochemical; settings: for ABTS scavenging EC50: analyzed using XLSTAT software
[21] = tested on: A. parasiticus; settings: cited from earlier work
[22] = target: T1, egg albumin (Gallus gallus, UniProt P01012); assay: Protein egg albumin denaturation assay; format: biochemical
T1 construct: albumin was extracted from a fresh egg collected from local market of Jorhat, India; from tissue; host or cells: fresh egg (egg white), local market
T1 sequence (P01012 whole entry): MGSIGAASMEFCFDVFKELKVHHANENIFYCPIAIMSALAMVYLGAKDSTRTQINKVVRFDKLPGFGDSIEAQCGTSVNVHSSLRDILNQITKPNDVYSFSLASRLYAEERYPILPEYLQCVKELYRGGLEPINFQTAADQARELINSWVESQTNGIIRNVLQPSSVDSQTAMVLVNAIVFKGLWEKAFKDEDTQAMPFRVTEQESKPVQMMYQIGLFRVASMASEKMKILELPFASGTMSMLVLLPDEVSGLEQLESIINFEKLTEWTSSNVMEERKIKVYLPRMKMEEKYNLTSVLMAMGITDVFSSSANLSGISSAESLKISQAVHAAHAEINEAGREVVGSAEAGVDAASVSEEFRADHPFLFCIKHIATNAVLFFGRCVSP

[23] = target: Acetylcholinesterase (Homo sapiens, UniProt P22303); assay: Acetylcholinesterase inhibitory assay; format: biochemical
Chain of Acetylcholinesterase (P22303 32-614, species assumed): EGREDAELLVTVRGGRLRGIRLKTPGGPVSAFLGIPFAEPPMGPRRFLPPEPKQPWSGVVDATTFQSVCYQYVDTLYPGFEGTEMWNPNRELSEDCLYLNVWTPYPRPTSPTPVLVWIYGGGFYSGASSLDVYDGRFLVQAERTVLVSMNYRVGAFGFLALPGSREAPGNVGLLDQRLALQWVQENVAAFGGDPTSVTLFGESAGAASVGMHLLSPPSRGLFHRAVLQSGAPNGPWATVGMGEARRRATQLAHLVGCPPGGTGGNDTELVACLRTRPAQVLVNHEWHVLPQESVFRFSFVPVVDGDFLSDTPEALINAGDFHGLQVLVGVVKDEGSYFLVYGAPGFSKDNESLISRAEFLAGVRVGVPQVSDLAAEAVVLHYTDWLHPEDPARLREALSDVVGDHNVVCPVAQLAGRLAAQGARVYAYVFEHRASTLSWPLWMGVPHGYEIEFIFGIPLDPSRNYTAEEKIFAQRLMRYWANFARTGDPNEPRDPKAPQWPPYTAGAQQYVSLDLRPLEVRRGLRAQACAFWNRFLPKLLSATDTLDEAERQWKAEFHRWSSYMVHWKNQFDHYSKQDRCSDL

[24] = tested on: Bacillus subtilis ATCC-11774; assay: Broth micro dilution MIC; format: cell-based; settings: ATCC11774, B. subtilis
[25] = tested on: Streptococcus mutans ATCC-25175; assay: Broth micro dilution MIC; format: cell-based; settings: ATCC25175, S.mutans
[26] = tested on: BChE; parameters: method as in PMID 19351555; settings: cited from earlier work
[27] = parameters: method as in PMID 23181593; settings: cited from earlier work
[28] = parameters: method as in PMID 23181593; settings: at 100 μg/mL; cited from earlier work
[29] = analyzed using Graph Pad Prism software
[30] = analyzed using MS-EXCEL software
[31] = Aspergillus fumigatus, ATCC204305

OC(Cn1cncn1)(Cn1cncn1)c1ccc(F)cc1F [fluconazole]
Zone of inhibition, standard drug ([1]; A. niger, 10 µg/disc): 12 ± 0.013 mm | zone of inhibition at 10 µg/disc ([1]; Aspergillus niger, ATCC16885, read-out: Zone of inhibition, standard drug): 12 mm | Zone of inhibition, standard drug ([2]; A. fumigatus, 10 µg/disc): 16 ± 0.011 mm | zone of inhibition at 10 µg/disc ([2]; Aspergillus fumigatus, ATCC204305, read-out: Zone of inhibition, standard drug): 16 mm | Zone of inhibition, standard drug ([3]; S. cerevisiae, 10 µg/disc): 14 ± 0.016 mm | zone of inhibition at 10 µg/disc ([3]; Saccharomyces cerevisiae, ATCC9763, read-out: Zone of inhibition, standard drug): 14 mm | Zone of inhibition, standard drug ([4]; C. albicans, 10 µg/disc): 20 ± 0.014 mm | zone of inhibition at 10 µg/disc ([4]; Candida albicans, ATCC66027, read-out: Zone of inhibition, standard drug): 20 mm

O=C(O)c1cn(C2CC2)c2cc(N3CCNCC3)c(F)cc2c1=O [ciprofloxacin, Ciprofloxacin]
zone of inhibition at 10 µg/disc ([5]; ATCC11632, read-out: Zone of inhibition, standard drug): 19 ± 0.017 mm | zone of inhibition at 10 µg/disc ([6]; ATCC25175, read-out: Zone of inhibition, standard drug): 7 ± 0.015 mm | zone of inhibition at 10 µg/disc [7]: 21 ± 0.015 mm | zone of inhibition at 10 µg/disc ([8]; ATCC10876, read-out: Zone of inhibition, standard drug): 15 ± 0.013 mm | zone of inhibition at 10 µg/disc ([9]; ATCC11774, read-out: Zone of inhibition, standard drug): 16 ± 0.015 mm

O=C(O)CN(CCN(CC(=O)O)CC(=O)O)CC(=O)O [EDTA, ethylenediamminetetracetic acid]
Metal chelating IC50 [10, 29]: 12.11 ± 0.002 µg/mL | Metal chelating IC50 [10, 30]: 29.92 ± 0.002 µg/mL | Metal chelating EC50 [10]: 29.33 ± 0.064 µg/mL

CCOS(C)(=O)=O [EMS, ethyl methanesulphonate]
Root length after treatment ± SD ([11]; after treatment): 7.31 ± 0.013 cm | Root length before treatment ± SD ([11]; before treatment): 7.24 ± 0.014 cm | Chromosomal aberration: Breakage [12]: 15 | Chromosomal aberration: Bridges [12]: 30 | Chromosomal aberration: Clumped [12]: 14 | Chromosomal aberration: Multipolarity [12]: 21 | Chromosomal aberration: Stickiness [12]: 28 | Total abberations [12]: 21.60% | Metaphase, dividing cells ([13]; Allium cepa root tips, 1 μL/mL): 13.27% | Mitotic index ([13]; Allium cepa root tips, 1 μL/mL): 1.96% | Prophase, dividing cells ([13]; Allium cepa root tips, 1 μL/mL): 86.73%

C/C=C/c1ccc(OC)cc1 [Anethole standard, anethole]
zone of inhibition at 100 µg/mL ([5]; ATCC11632): 8 mm | zone of inhibition at 250 µg/mL ([5]; ATCC11632): 10 mm | zone of inhibition at 500 µg/mL ([5]; ATCC11632): 14 mm | AChE inhibitory IC50 [14]: 134.70 µg/mL | Root length before treatment ± SD ([15]; 0 h): 7.71 ± 0.016 cm | Root length after treatment ± SD ([15]; 72 h): 8.36 ± 0.009 cm | zone of inhibition at 50 µg/mL ([6]; ATCC25175): 12 mm | zone of inhibition at 100 µg/mL ([6]; ATCC25175): 16 mm | zone of inhibition at 250 µg/mL ([6]; ATCC25175): 18 mm | zone of inhibition at 500 µg/mL ([6]; ATCC25175): 23 mm | MIC [16]: 95 µg/mL (≈ 641 µM) | α-Amylase inhibitory IC50 [17, 29]: 13.08 ± 0.016 µg/mL | α-Amylase inhibitory IC50 [17, 30]: 22.16 ± 0.12 µg/mL | α-Amylase inhibitory EC50 ([17]; analyzed using XLSTAT software): 21.75 ± 0.008 µg/mL | DPPH scavenging IC50 [18, 29]: 0.58 ± 0.048 µg/mL | DPPH scavenging IC50 [18, 30]: 10.94 ± 0.026 µg/mL | DPPH scavenging EC50 [18]: 8.69 ± 0.058 µg/mL | MIC [19]: 65 µg/mL (≈ 439 µM) | Metal chelating IC50 [10, 29]: 12.15 ± 0.032 µg/mL | Metal chelating IC50 [10, 30]: 31.02 ± 0.018 µg/mL | Metal chelating EC50 [10]: 29.54 ± 0.032 µg/mL | ABTS scavenging IC50 [20, 29]: 34.9 ± 0.004 µg/mL | ABTS scavenging IC50 [20, 30]: 9.26 ± 0.002 µg/mL | ABTS scavenging EC50 [20]: 9.48 ± 0.048 µg/mL | Concentration that inhibits completely the growth of A. parasiticus [21]: 400 µg/mL | EC50 [22]: 132 µM | IC50 ([22]; Protein denaturation IC50, analyzed using Graph Pad Prism software): 1380 µM | IC50 ([22]; Protein denaturation IC50, analyzed using MS-EXCEL software): 130 µM | Genotoxic effect (in words) [13]: no genotoxic effect | Anaphase, dividing cells ([13]; Allium cepa, 1 μL/mL): 13.51% | Metaphase, dividing cells ([13]; Allium cepa, 1 μL/mL): 18.92% | Prophase, dividing cells ([13]; Allium cepa, 1 μL/mL): 59.46% | Telophase, dividing cells ([13]; Allium cepa, 1 μL/mL): 8.10% | EC50 [23]: 208 µM | IC50 ([23]; Acetylcholinesterase inhibitory IC50, analyzed using Graph Pad Prism software): 145 µM | IC50 ([23]; Acetylcholinesterase inhibitory IC50, analyzed using MS-EXCEL software): 228 µM | MIC [24]: 90 µg/mL (≈ 607 µM) | zone of inhibition at 250 µg/mL ([1]; Aspergillus niger, ATCC16885): 16 mm | zone of inhibition at 500 µg/mL ([1]; Aspergillus niger, ATCC16885): 21 mm | MIC [25]: 15 µg/mL (≈ 101 µM) | zone of inhibition at 250 µg/mL ([8]; ATCC10876): 13 mm | zone of inhibition at 500 µg/mL ([8]; ATCC10876): 16 mm | BChE inhibitory IC50 [26]: 209.60 µg/mL | zone of inhibition at 250 µg/mL [2, 31]: 14 mm | zone of inhibition at 500 µg/mL [2, 31]: 18 mm | zone of inhibition at 500 µg/mL ([3]; Saccharomyces cerevisiae, ATCC9763): 16 mm | zone of inhibition at 100 µg/mL ([9]; ATCC11774): 8 mm | zone of inhibition at 250 µg/mL ([9]; ATCC11774): 11 mm | zone of inhibition at 500 µg/mL ([9]; ATCC11774): 13 mm | zone of inhibition at 500 µg/mL ([4]; Candida albicans, ATCC66027): 19 mm

O=C1O[C@H]([C@@H](O)CO)C(O)=C1O [Ascorbic acid]
DPPH scavenging IC50 [18, 29]: 0.60 ± 0.121 µg/mL | DPPH scavenging IC50 [18, 30]: 17.27 ± 0.004 µg/mL | DPPH scavenging EC50 [18]: 17.55 ± 0.056 µg/mL | ABTS scavenging IC50 [20, 29]: 39.31 ± 0.84 µg/mL | ABTS scavenging IC50 [20, 30]: 17.61 ± 0.012 µg/mL | ABTS scavenging EC50 [20]: 19.54 ± 0.121 µg/mL | DPPH scavenging activity ([27]; at 1000 μg/mL): 99.65% | DPPH IC50 [27]: 5.15 µg/mL | Reducing power [28]: 0.85
